In patent publication US20110288116A1, “IAP INHIBITORS” (TETRALOGIC PHARMACEUITCAL CORPORATION, priority 2008, published 2011):

Each molecule was assayed against T1, cIAP-1 BIR-3 (Homo sapiens, UniProt Q13490) (assay: Fluorescence polarization binding to cIAP-1 BIR-3 (competition with AbuRPF-K(5-Fam)-NH2)). Settings: cells marked (cIAP-1): cIAP-1 BIR-3; reported as range class.
T1 construct: "cIAP-1 BIR-3"
T1 sequence (Q13490 266-343 limits assumed): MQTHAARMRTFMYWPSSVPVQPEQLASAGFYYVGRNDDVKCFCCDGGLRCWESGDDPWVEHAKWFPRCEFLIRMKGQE
Description: The binding affinities of the compounds are reported as a Kd value. Briefly, various concentrations of test peptides were mixed with 5 nM of the fluorescently labeled peptide (i.e., a mutated N-terminal Smac peptide—AbuRPF-K(5-Fam)-NH2) and 40 nM of the BIR3 for 15 min at RT in […] of 0.1M Potassium Phosphate buffer, pH 7.5 containing […] bovine g-globulin. Following incubation, the polarization values (mP) were measured on a Victor2V (available from PerkinElmer Life Sciences) using a 485 nm excitation filter and a 520 nm emission filter. The reported Kd values are supplied as ranges (A=<0.1 μM, B=0.1 μM to C=>1 μM to 10 μM, D=>10 μM) and, unless otherwise indicated, are the Kd for XIAP BIR-3.
With CN[C@@H](C)C(=O)N[C@H](C(=O)N1CC[C@H](O)[C@H]1Cc1c(Cl)[nH]c2cc(F)ccc12)[C@@H](C)OC [CC′, N-{1-[2-(2-Chloro-6-fluoro-1H-indol-3-ylmethyl)-3-hydroxy-pyrrolidine-1-carbonyl]-2-methoxy-propyl}-2-methylamino-propionamide] the Kd was < 100 nM.
CCc1ccc2c(c1)[C@@H](C[C@@H]1C[C@H](O)CN1C(=O)[C@@H](NC(=O)[C@H](C)NC)[C@@H](C)OC)CN2C(C)=O [DDDD] was tested, and the Kd was < 100 nM.
With CC[C@H](NC)C(=O)N[C@H](C(=O)N1CC[C@@H](O)[C@H]1Cc1c(-c2ccc(F)cc2)[nH]c2ccccc12)[C@@H](C)O [DDD] the Kd was < 100 nM.
For CN[C@@H](C)C(=O)N[C@H](C(=O)N1CC[C@H](O)[C@H]1Cc1c[nH]c2ncccc12)C(C)C [DD], the Kd was < 100 nM.
In the case of CCN[C@@H](C)C(=O)N[C@H](C(=O)N1CC[C@@H](O)[C@H]1Cc1c[nH]c2ccccc12)[C@@H](C)O [DD′], the Kd is reported as < 100 nM.
In the case of CN[C@@H](C)C(=O)N[C@H](C(=O)N1CC[C@@H](O)[C@H]1Cc1c(-c2ccc(F)cc2)[nH]c2ccccc12)[C@@H](C)O [EEE], the Kd is reported as < 100 nM.
With CCN[C@@H](C)C(=O)N[C@H](C(=O)N1CC[C@H](O)[C@H]1Cc1c[nH]c2ncccc12)C(C)C [EE] the Kd was < 100 nM.
With CCN[C@@H](C)C(=O)N[C@@H](COC)C(=O)N1CC[C@@H](O)[C@H]1Cc1c(-c2ccc(F)cc2)[nH]c2ccccc12 [FFF] the Kd was > 100 nM.
In the case of CCN[C@@H](C)C(=O)N[C@H](C(=O)N1CC[C@@H](O)[C@H]1Cc1c[nH]c2ccccc12)[C@@H](C)OC [GG′], the Kd is reported as < 100 nM.
For CN[C@@H](C)C(=O)N[C@@H](COC)C(=O)N1CC[C@@H](O)[C@H]1Cc1c(-c2ccc(F)cc2)[nH]c2ccccc12 [HHH], the Kd was > 100 nM.
In the case of CCN[C@@H](C)C(=O)N[C@H](C(=O)N1CC[C@@H](O)[C@H]1Cc1c(-c2ccc(F)cc2)[nH]c2ccccc12)C1CCCCC1 [III], the Kd is reported as < 100 nM.
CCN[C@@H](C)C(=O)N[C@H](C(=O)N1CC[C@@H](O)[C@H]1Cc1c[nH]c2ccccc12)C1CCCCC1 [JJ′] was tested, and the Kd was < 100 nM.
In the case of CC[C@H](NC)C(=O)N[C@H](C(=O)N1CC[C@@H](O)[C@H]1Cc1c[nH]c2ccccc12)C1CCCCC1 [KK′], the Kd is reported as < 100 nM.
CCN[C@@H](C)C(=O)N[C@H](C(=O)N1CC[C@@H](O)[C@H]1Cc1c(-c2ccc(F)cc2)[nH]c2ccccc12)[C@@H](C)OC [LLL] was tested, and the Kd was < 100 nM.
CC[C@H](NC)C(=O)N[C@H](C(=O)N1CC[C@@H](O)[C@H]1Cc1c(-c2ccc(F)cc2)[nH]c2ccccc12)[C@@H](C)OC [MMM] was tested, and the Kd was < 100 nM.
In the case of CN[C@H](C(=O)N[C@H](C(=O)N1CC[C@@H](O)[C@H]1Cc1c[nH]c2ccccc12)C(C)(C)C)C1CC1 [MM′], the Kd is reported as < 100 nM.
For CC[C@H](NC)C(=O)N[C@H](C(=O)N1CC[C@@H](O)[C@H]1Cc1c[nH]c2ccccc12)C(C)(C)C [NN′], the Kd was < 100 nM.
For CCN[C@@H](C)C(=O)N[C@H](C(=O)N1CC[C@@H](O)[C@H]1Cc1c[nH]c2ccccc12)C(C)(C)C [OO′], the Kd was < 100 nM.
CN[C@@H](C)C(=O)N[C@H](C(=O)N1C[C@@H](O)C[C@H]1C(=O)c1c[nH]c2cc(F)ccc12)C(C)(C)C [PPP, N-{1-[2-(6-Fluoro-1H-indole-3-carbonyl)-4-hydroxy-pyrrolidine-1-carbonyl]-2,2-dimethyl-propyl}-2-methylamino-propionamide] was tested, and the Kd was < 100 nM.
CN[C@@H](C)C(=O)N[C@H](C(=O)N1CC[C@@H](O)[C@H]1Cc1c[nH]c2ccccc12)C(C)(C)C [PP′] was tested, and the Kd was < 100 nM.
With CN[C@@H](C)C(=O)N[C@H](C(=O)N1C[C@@H](O)C[C@H]1C(=O)c1c[nH]c2cc(F)ccc12)C(C)C [QQQ] the Kd was < 100 nM.
In the case of CN[C@H](C(=O)N[C@H](C(=O)N1CC[C@@H](O)[C@H]1Cc1c[nH]c2ccccc12)C1CC1)C1CC1 [QQ′], the Kd is reported as > 100 nM.
With CC[C@H](NC)C(=O)N[C@H](C(=O)N1CC[C@@H](O)[C@H]1Cc1c[nH]c2ccccc12)C1CC1 [RR′] the Kd was < 100 nM.
With CCN[C@@H](C)C(=O)N[C@H](C(=O)N1CC[C@@H](O)[C@H]1Cc1c[nH]c2ccccc12)C1CC1 [SS′] the Kd was > 100 nM.
In the case of CN[C@@H](C)C(=O)N[C@H](C(=O)N1C[C@@H](O)C[C@H]1C[C@@H]1CN(C(C)=O)c2ccccc21)C1CCCCC1 [TTT], the Kd is reported as < 100 nM.
For CN[C@H](C(=O)N[C@H](C(=O)N1CC[C@@H](O)[C@H]1Cc1c[nH]c2ccccc12)C(C)C)C1CC1 [TT′], the Kd was > 100 nM.
With CC[C@H](NC)C(=O)N[C@H](C(=O)N1CC[C@@H](O)[C@H]1Cc1c[nH]c2ccccc12)C(C)C [UU′] the Kd was < 100 nM.
CCN[C@@H](C)C(=O)N[C@H](C(=O)N1CC[C@H](OC)[C@H]1Cc1c(Cl)[nH]c2cc(F)ccc12)C(C)C [U′] was tested, and the Kd was > 100 nM.
For CN[C@@H](C)C(=O)N[C@H](C(=O)N1CC[C@@H](O)[C@H]1Cc1c[nH]c2ccccc12)C1CC1 [VV′], the Kd was < 100 nM.
With CC[C@H](NC)C(=O)N[C@H](C(=O)N1CCC[C@H]1Cc1cn(C)c2ncccc12)C(C)(C)C [V] the Kd was > 100 nM.
With CC[C@H](NC)C(=O)N[C@H](C(=O)N1CC[C@H](OC)[C@H]1Cc1c(Cl)[nH]c2cc(F)ccc12)C(C)C [V′] the Kd was > 100 nM.
CN[C@@H](C)C(=O)N[C@H](C(=O)N1C[C@@H](O)C[C@H]1C[C@H]1CN(C(C)=O)c2ccccc21)[C@@H](C)OC [WWW] was tested, and the Kd was > 100 nM.
CCN[C@@H](C)C(=O)N[C@H](C(=O)N1CCC[C@H]1Cc1cn(C)c2ncccc12)C(C)(C)C [W] was tested, and the Kd was < 100 nM.
For CN[C@@H](C)C(=O)N[C@H](C(=O)N1CC[C@H](O)[C@H]1Cc1c(Cl)[nH]c2cc(F)ccc12)C1CCCCC1 [W′], the Kd was < 100 nM.
For CN[C@@H](C)C(=O)N[C@H](C(=O)N1CC[C@@H](O)[C@H]1Cc1c[nH]c2ccccc12)C(C)C [XX′], the Kd was < 100 nM.
For CN[C@@H](C)C(=O)N[C@H](C(=O)N1CCC[C@H]1Cc1cn(C)c2ncccc12)C(C)(C)C [X], the Kd was < 100 nM.
For CN[C@@H](C)C(=O)N[C@H](C(=O)N1CC[C@H](O)[C@H]1Cc1c(Cl)[nH]c2cc(F)ccc12)C(C)(C)C [Y′], the Kd was < 100 nM.
For CN[C@@H](C)C(=O)N[C@H](C(=O)N1CC[C@H](O)[C@H]1Cc1c[nH]c2ncccc12)C(C)(C)C [Z, N-{1-[3-Hydroxy-2-(1H-pyrrolo[2,3-b]pyridin-3-ylmethyl)-pyrrolidine-1-carbonyl]-2,2-dimethyl-propyl}-2-methylamino-propionamide], the Kd was < 100 nM.
With CCc1ccc2c(c1)[C@H](C[C@@H]1C[C@H](O)CN1C(=O)[C@@H](NC(=O)[C@H](C)NC)[C@@H](C)OC)CN2C(C)=O [ZZZ] the Kd was < 100 nM.
For CCN[C@@H](C)C(=O)N[C@H](C(=O)N1CC[C@@H](O)[C@H]1Cc1c(-c2ccc(F)cc2)[nH]c2ccccc12)C(C)C [ZZ′], the Kd was < 100 nM.
CC[C@H](NC)C(=O)N[C@H](C(=O)N1CC[C@H](O)[C@H]1Cc1c(Cl)[nH]c2cc(F)ccc12)C(C)C [Z′] was tested, and the Kd was < 100 nM.
For AAAA, the Kd was > 100 nM.
For EEEE, the Kd was > 100 nM.
